Measurements as given in US8609724B2, “Method of treating cancer using dichloroacetate” (priority 2005, dated 2013).
“Also recorded” adds a separate entry of the source.

Experiments:
cancer cells = assay: Free cytosolic calcium (fluo-3, confocal); format: cell-based, human; conditions: treated vs control cells
NFAT = NFAT and Kv1.5 confocal imaging; format: cell-based, human; conditions: A549 cells
Experimental: Imaging was performed using a Zeiss LSM 510 confocal microscope as described. Apoptag apoptosis detection kit (TUNEL stain, Serologicals, Norcross, Ga.) and the proliferating cell nuclear antigen (PCNA) antibody (DAKO, Carpinteria, Calif.) were used as per manufacturer's instructions on both formaldehyde fixed cells and paraffin-embedded tissue sections after antigen retrieval. Nuclear staining was made using 4′,6′-diamidino-2-phenylindole dihydrochloride (DAPI, 300 nM; Molecular Probes) in fixed tissue or cells as previously described Apoalert Annexin V kit (Clontech, Palo Alto, Calif.), cytochrome c antibody (Pharmingen, San Diego, Calif.), Apoptosis inducing factor (Santa Cruz Calif. USA) NFAT and Kv1.5 (Sigma) and mitotracker red (500 nM, Molecular Probes) were used as described by the company instructions. Mitochondrial membrane potential (ΔΨm) was studied in live cancer cultured cells, using tetramethylrhodamine methyl-ester perchlorate (TMRM) (20 nmol/L) for 30 minutes (37° C.) and Hoechst (1.0 umol/L) nuclear staining for 10 minutes (Molecular Probes, Canada).

**Q.** For `OO` [H2O2], which “free cytosolic calcium concentration” value (cancer cells) is on record?
**A.** decreases the intracellular Ca++ levels; also recorded: Control cells had more calcium than both DCA and H2O2 treated cells

**Q.** What about the “Kv1.5 expression (confocal immunostaining)” value (NFAT) of the same compound?
**A.** increased Kv1.5 expression

**Q.** And the “NFAT activation (nuclear localization)” value (NFAT)?
**A.** blocked the activation of NFAT
